From US8192962B2, “Processes for detecting toxic substances” (Daikin Industries, Ltd., priority 2001, dated 2012)

Tested on: Unknown protein yeast genes
Assay: DNA chip mRNA expression in yeast, unknown protein yeast genes (Table 1)
Format: cell-based, Saccharomyces cerevisiae S288C
Procedure, shortened: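 S. cerevisiae S288C grown at 25° C in YPD were exposed in log phase for two hours to one toxic chemical at a growth-inhibiting, non-lethal concentration; untreated cells served as control. Poly(A) mRNA was reverse-transcribed with Cy3/Cy5-dUTP and hybridized to a whole-genome yeast DNA chip at 65° C for over 12 hours; values are fluorescence ratios versus untreated.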

N#Cc1c(Cl)c(Cl)c(Cl)c(C#N)c1Cl [(9), 2,4,5,6-tetrachloro-1,3-benzenedicarbonitrile]
The level of expressed mRNA in the presence of chemical substance/The level of expressed mRNA in the absence of chemical substance (yeast gene YKL195W, incubated two hours with chemical substance): 3.6 | The level of expressed mRNA in the presence of chemical substance/The level of expressed mRNA in the absence of chemical substance (yeast gene YKR018C): 3.9 | The level of expressed mRNA in the presence of chemical substance/The level of expressed mRNA in the absence of chemical substance (yeast gene YKR046C): 3.9 | The level of expressed mRNA in the presence of chemical substance/The level of expressed mRNA in the absence of chemical substance (yeast gene YKR091W, incubated two hours with chemical substance): 1.0 | The level of expressed mRNA in the presence of chemical substance/The level of expressed mRNA in the absence of chemical substance (yeast gene YLR054C, incubated two hours with chemical substance): 2.7 | The level of expressed mRNA in the presence of chemical substance/The level of expressed mRNA in the absence of chemical substance (yeast gene YLR149C, incubated two hours with chemical substance): 6.2 | The level of expressed mRNA in the presence of chemical substance/The level of expressed mRNA in the absence of chemical substance (yeast gene YLR152C, incubated two hours with chemical substance): 0.6 | The level of expressed mRNA in the presence of chemical substance/The level of expressed mRNA in the absence of chemical substance (yeast gene YLR161W): 1.0 | The level of expressed mRNA in the presence of chemical substance/The level of expressed mRNA in the absence of chemical substance (yeast gene YLR177W): 1.0 | The level of expressed mRNA in the presence of chemical substance/The level of expressed mRNA in the absence of chemical substance (yeast gene YLR194C, incubated two hours with chemical substance): 0.9 | The level of expressed mRNA in the presence of chemical substance/The level of expressed mRNA in the absence of chemical substance (yeast gene YLR324W, incubated two hours with chemical substance): 3.1 | The level of expressed mRNA in the presence of chemical substance/The level of expressed mRNA in the absence of chemical substance (yeast gene YLR338W): 7.9 | The level of expressed mRNA in the presence of chemical substance/The level of expressed mRNA in the absence of chemical substance (yeast gene YLR346C): 8.6 | The level of expressed mRNA in the presence of chemical substance/The level of expressed mRNA in the absence of chemical substance (yeast gene YLR350W, incubated two hours with chemical substance): 0.6 | The level of expressed mRNA in the presence of chemical substance/The level of expressed mRNA in the absence of chemical substance (yeast gene YLR387C, incubated two hours with chemical substance): 7.8 | The level of expressed mRNA in the presence of chemical substance/The level of expressed mRNA in the absence of chemical substance (yeast gene YLR460C): 13.9 | The level of expressed mRNA in the presence of chemical substance/The level of expressed mRNA in the absence of chemical substance (yeast gene YML117W, incubated two hours with chemical substance): 1.0 | The level of expressed mRNA in the presence of chemical substance/The level of expressed mRNA in the absence of chemical substance (yeast gene YMR009W, incubated two hours with chemical substance): 3.4 | The level of expressed mRNA in the presence of chemical substance/The level of expressed mRNA in the absence of chemical substance (yeast gene YMR067C, incubated two hours with chemical substance): 4.0 | The level of expressed mRNA in the presence of chemical substance/The level of expressed mRNA in the absence of chemical substance (yeast gene YMR090W): 16.7 | The level of expressed mRNA in the presence of chemical substance/The level of expressed mRNA in the absence of chemical substance (yeast gene YMR097C, incubated two hours with chemical substance): 2.1 | The level of expressed mRNA in the presence of chemical substance/The level of expressed mRNA in the absence of chemical substance (yeast gene YMR102C, incubated two hours with chemical substance): 1.7 | The level of expressed mRNA in the presence of chemical substance/The level of expressed mRNA in the absence of chemical substance (yeast gene YMR107W, incubated two hours with chemical substance): 6.0 | The level of expressed mRNA in the presence of chemical substance/The level of expressed mRNA in the absence of chemical substance (yeast gene YMR180C, incubated two hours with chemical substance): 1.8 | The level of expressed mRNA in the presence of chemical substance/The level of expressed mRNA in the absence of chemical substance (yeast gene YMR184W, incubated two hours with chemical substance): 2.1 | The level of expressed mRNA in the presence of chemical substance/The level of expressed mRNA in the absence of chemical substance (yeast gene YMR191W, incubated two hours with chemical substance): 2.2 | The level of expressed mRNA in the presence of chemical substance/The level of expressed mRNA in the absence of chemical substance (yeast gene YMR251W): 3.1 | The level of expressed mRNA in the presence of chemical substance/The level of expressed mRNA in the absence of chemical substance (yeast gene YMR295C, incubated two hours with chemical substance): 1.0 | The level of expressed mRNA in the presence of chemical substance/The level of expressed mRNA in the absence of chemical substance (yeast gene YMR316W, incubated two hours with chemical substance): 2.1 | The level of expressed mRNA in the presence of chemical substance/The level of expressed mRNA in the absence of chemical substance (yeast gene YNL044W, incubated two hours with chemical substance): 0.8 | The level of expressed mRNA in the presence of chemical substance/The level of expressed mRNA in the absence of chemical substance (yeast gene YNL074C, incubated two hours with chemical substance): 1.5 | The level of expressed mRNA in the presence of chemical substance/The level of expressed mRNA in the absence of chemical substance (yeast gene YNL092W, incubated two hours with chemical substance): 2.3 | The level of expressed mRNA in the presence of chemical substance/The level of expressed mRNA in the absence of chemical substance (yeast gene YNL115C, incubated two hours with chemical substance): 2.6 | The level of expressed mRNA in the presence of chemical substance/The level of expressed mRNA in the absence of chemical substance (yeast gene YNL156C, incubated two hours with chemical substance): 2.4 | The level of expressed mRNA in the presence of chemical substance/The level of expressed mRNA in the absence of chemical substance (yeast gene YNL234W, incubated two hours with chemical substance): 2.6 | The level of expressed mRNA in the presence of chemical substance/The level of expressed mRNA in the absence of chemical substance (yeast gene YNL281W, incubated two hours with chemical substance): 2.8 | The level of expressed mRNA in the presence of chemical substance/The level of expressed mRNA in the absence of chemical substance (yeast gene YNL305C, incubated two hours with chemical substance): 2.9 | The level of expressed mRNA in the presence of chemical substance/The level of expressed mRNA in the absence of chemical substance (yeast gene YNR068C, incubated two hours with chemical substance): 6.7 | The level of expressed mRNA in the presence of chemical substance/The level of expressed mRNA in the absence of chemical substance (yeast gene YOL032W, incubated two hours with chemical substance): 4.5 | The level of expressed mRNA in the presence of chemical substance/The level of expressed mRNA in the absence of chemical substance (yeast gene YOL036W, incubated two hours with chemical substance): 3.1 | The level of expressed mRNA in the presence of chemical substance/The level of expressed mRNA in the absence of chemical substance (yeast gene YOL047C, incubated two hours with chemical substance): 0.6 | The level of expressed mRNA in the presence of chemical substance/The level of expressed mRNA in the absence of chemical substance (yeast gene YOL071W, incubated two hours with chemical substance): 4.4 | The level of expressed mRNA in the presence of chemical substance/The level of expressed mRNA in the absence of chemical substance (yeast gene YOL082W, incubated two hours with chemical substance): 3.4 | The level of expressed mRNA in the presence of chemical substance/The level of expressed mRNA in the absence of chemical substance (yeast gene YOL083W, incubated two hours with chemical substance): 2.7 | The level of expressed mRNA in the presence of chemical substance/The level of expressed mRNA in the absence of chemical substance (yeast gene YOL117W, incubated two hours with chemical substance): 1.3 | The level of expressed mRNA in the presence of chemical substance/The level of expressed mRNA in the absence of chemical substance (yeast gene YOL131W, incubated two hours with chemical substance): 8.4 | The level of expressed mRNA in the presence of chemical substance/The level of expressed mRNA in the absence of chemical substance (yeast gene YOL150C): 10.8 | The level of expressed mRNA in the presence of chemical substance/The level of expressed mRNA in the absence of chemical substance (yeast gene YOL162W, incubated two hours with chemical substance): 12.0 | The level of expressed mRNA in the presence of chemical substance/The level of expressed mRNA in the absence of chemical substance (yeast gene YOR019W, incubated two hours with chemical substance): 3.5 | The level of expressed mRNA in the presence of chemical substance/The level of expressed mRNA in the absence of chemical substance (yeast gene YOR161C): 1.0 | The level of expressed mRNA in the presence of chemical substance/The level of expressed mRNA in the absence of chemical substance (yeast gene YOR197W, incubated two hours with chemical substance): 0.8 | The level of expressed mRNA in the presence of chemical substance/The level of expressed mRNA in the absence of chemical substance (yeast gene YPL087W, incubated two hours with chemical substance): 1.0 | The level of expressed mRNA in the presence of chemical substance/The level of expressed mRNA in the absence of chemical substance (yeast gene YPL150W): 3.1 | The level of expressed mRNA in the presence of chemical substance/The level of expressed mRNA in the absence of chemical substance (yeast gene YPL196W, incubated two hours with chemical substance): 10.9 | The level of expressed mRNA in the presence of chemical substance/The level of expressed mRNA in the absence of chemical substance (yeast gene YPL206C, incubated two hours with chemical substance): 1.7 | The level of expressed mRNA in the presence of chemical substance/The level of expressed mRNA in the absence of chemical substance (yeast gene YPL222W, incubated two hours with chemical substance): 7.4 | The level of expressed mRNA in the presence of chemical substance/The level of expressed mRNA in the absence of chemical substance (yeast gene YPL225W): 1.0 | The level of expressed mRNA in the presence of chemical substance/The level of expressed mRNA in the absence of chemical substance (yeast gene YPR023C, incubated two hours with chemical substance): 4.4 | The level of expressed mRNA in the presence of chemical substance/The level of expressed mRNA in the absence of chemical substance (yeast gene YPR151C, incubated two hours with chemical substance): 3.0
